Source: patent US6524625B2, “Physiologically active extract obtained from indigo plant polygonum tinctorium” (Kabushiki Kaisha Hayashibara Seibutsu Kagaku Kenkyuto, priority 1998, dated 2003)
In brackets after ≈: the same amount, converted by molar mass.

Experiments:
[1] = system: Helicobacter pylori (NCTC 11638); assay: Antiseptic action: MIC, agar plate dilution method; assay type: cell-based
[2] = Water-solubility (dissolving in refined water for the NBT test); assay type: physicochemical; conditions: NBT evaluation impossible
Procedure: Then the formed formazan was quantified on spectro-chemical analysis. Either of the present physiologically active extracts was dissolved in a refined water to give an appropriate concentration, and the solutions were used for test samples. As a control it was provided by replacing the test samples with a refined water. The 50% inhibitory activity for the formation of formazan in the control was defined as a one unit activity of radical-entrapping action. Based of the definition, the radical-entrapping activity of one gram of each test sample was determined.
Particularly, the radical-entrapping action of the physiologically active substance of Experiment 1 and Compounds 5 and 6 of Experiment 2 was remarkable.

HGC-27 cells [3] = assay: Apoptosis controlling action, propidium iodide flow cytometry; assay type: cell-based, human; conditions: HGC-27 cells (1 × 10^5 cells/ml)
Procedure: (§1) The solution was distributed to a microplate in one milliliter per well, and the solution in each well was diluted in series with a fresh preparation of the same medium as used in the above.
(§2) HL-60 cells, ATCC CCL-240, derived from a patient with acute promyelocytic leukemia; U-937 cells, ATCC CRL-1593.2, derived from a patient with human histiocytic lymphoma; HGC-27 cells, RCB0500, derived from a patient with gastric cancer; HLC-1 cells, RCB0083, derived from a patient with lung adenocarcinoma; and C6 cells, ATCC CCL-107, derived from rat glial tumor, were respectively suspended in RPMI1640 medium (pH 7.2) to give a cell density of 1×10^6 cells/ml or 2×10^5 cells/ml. To the microplate, containing a one milliliter dilution of 20, 10 or 5.0 μg/ml of Compound 1, was added one milliliter per well of either of the above cell suspensions and used for test systems. All the test systems were made duplex and respectively subjected to 24- and 48-hour incubations in a 5 v/v % CO2 incubator at 37° C. A system free of Compound 1 was provided and treated similarly as above and used for control.
(§3) According to the method by I. Nicoletti et al. in Journal of Immunological Methods, Vol. 139, pp. 271-279 (1991), the apoptosis-induced cells in the test systems and control were stained by propidium iodide and determined for the percentage of the stained cells to the total cells in such a manner that transferring each of the cultures to polypropylene tubes, centrifuging the tubes, removing the resulting supernatants, washing the cells' sediments with phosphate buffered saline containing 0.3 v/v % calf serum albumin, and further centrifuging the washed cells to remove supernatants. The newly formed sediments were respectively mixed with 50 μg/ml of propidium iodide commercialized by Sigma Chemical Company, St. Louis, Mo., USA, 0.1 w/v % sodium citrate, and0.1 w/v % “TRITON X-100”, a surfactant commercialized by Sigma Chemical Company, St. Louis, Mo., USA, in respective volumes of 1.5 ml to stain the cells by propidium iodide. The stained cells were stored at 4° C. in the dark overnight. The stained cells of each test system were analyzed on “EPICS PROFILE II”, a flow cytometry commercialized by Beckman Coulter, Inc., CA, USA. Based on the data the percentage of the stained cells to the total cells in each test system was measured for apoptosis occurrence.

HLC-1 cells [4] = assay: as above; assay type: cell-based, human; conditions: HLC-1 cells (1 × 10^5 cells/ml)
Procedure: as §1, §2, §3

U-937 cells = assay: as above; assay type: cell-based, human; conditions: U-937 cells (5 × 10^5 cells/ml)
Procedure: as §1, §2, §3

HL-60 cells [5] = assay: as above; assay type: cell-based, human; conditions: HL-60 cells (5 × 10^5 cells/ml)
Procedure: as §1, §2, §3

HGC-27 cells [6] = assay: Antitumor action: growth inhibition, methylene blue staining; assay type: cell-based; conditions: Homo sapiens, HGC-27, 48 h, read-out: 50% growth inhibitory concentration
Procedure: (§4) Solutions in each well were serially diluted with a fresh preparation of the same RPMI1640 medium (pH 7.2) as used in the above. […] Each cell suspension was distributed to a microplate in a volume of 50 μl/well and incubated at 37° C. for 48 hours in a 5 v/v % CO2 incubator. To each microplate, a 25 v/v % aqueous glutaraldehyde solution was added in a volume of 20 μl/well, and the microplate was allowed to stand for 15 min to fix the cells. Then, the cells adhered to the wells were washed with water, admixed with a 0.05 w/v % aqueous methylene blue solution in a volume of 100 μl/well, and further allowed to stand for 15 min to stain the cells. Thereafter, an excessive amount of the staining solution was removed from the wells by washing with water, and the cells were dried, admixed with 300 μl/well of 0.33 N hydrochloric acid, stirred sufficiently, and measured for absorption at a wavelength of 620 nm. In parallel, as a control, a system free of a test sample was provided and treated similarly as in the test samples. […]

HLC-1 cells [7] = assay: as above; assay type: cell-based; conditions: Homo sapiens, 48 h, read-out: 50% growth inhibitory concentration
Procedure: as §4

HL-60 cells [8] = assay: as above; assay type: cell-based; conditions: Homo sapiens, HL-60, 48 h, read-out: 50% growth inhibitory concentration
Procedure: as §4

C6 cells = assay: Apoptosis controlling action, propidium iodide flow cytometry; assay type: cell-based, rat; conditions: C6 cells (1 × 10^5 cells/ml)
Procedure: as §1, §2, §3

[9] = system: vesicular stomatitis virus (VSV); assay: microbe, parasite or virus in culture; assay type: cell-based; conditions: L929, 24 h, read-out: 50% Growth inhibitory concentration
[10] = system: Staphylococcus aureus (ATCC 6538P); assay: Antiseptic action: MIC, agar plate dilution method; assay type: cell-based; conditions: Staphylococcus aureus, ATCC6538P, read-out: Minimum inhibitory concentration
[11] = 48 hours, 2.5 μg/ml, control 1.5
[12] = 48 hours, 5.0 μg/ml, control 1.5
[13] = 48 hours, 10 μg/ml, control 1.5

For O=C1c2ccccc2-n2c1nc1ccccc1c2=O [Compound 1, 6,12-dihydro-6,12-dioxoindolo[2,1-b]quinazoline], the MIC ([1]; Helicobacter pylori, NCTC11638, read-out: Minimum inhibitory concentration) was 2.5 µg/mL (≈ 10.1 µM), the “Inhibition of the growth of Helicobacter pylori (in words)” value ([1]; comment on Table 8) was “strongly inhibited the growth” and the Water-solubility [2] was “insufficient water-solubility”. The Apoptosis occurrence (HGC-27 cells [3]; 24 hours, 2.5 μg/ml, control 1.5) was 1.9%, the Apoptosis occurrence (HGC-27 cells [3]; 24 hours, 5.0 μg/ml, control 1.5) was 1.7% and the Apoptosis occurrence (HGC-27 cells [3]; 24 hours, 10 μg/ml, control 1.5) was 3.5%. It also gave an Apoptosis occurrence (HGC-27 cells [3]; 48 hours, 2.5 μg/ml, control 1.4) of 2.2%, an Apoptosis occurrence (HGC-27 cells [3]; 48 hours, 5.0 μg/ml, control 1.4) of 4.1% and an Apoptosis occurrence (HGC-27 cells [3]; 48 hours, 10 μg/ml, control 1.4) of 14.1%. For the same molecule, the Apoptosis occurrence (HLC-1 cells [4]; 24 hours, 2.5 μg/ml, control 2.7) was 3.7%, the Apoptosis occurrence (HLC-1 cells [4]; 24 hours, 5.0 μg/ml, control 2.7) was 4.2% and the Apoptosis occurrence (HLC-1 cells [4]; 24 hours, 10 μg/ml, control 2.7) was 8.1%. The Apoptosis occurrence (HLC-1 cells [4]; [11]) was 5.8%, the Apoptosis occurrence (HLC-1 cells [4]; [12]) was 7.3% and the Apoptosis occurrence (HLC-1 cells [4]; [13]) was 21.8%. It also gave an Apoptosis occurrence (U-937 cells; 24 hours, 2.5 μg/ml, control 3.2) of 3.2%, an Apoptosis occurrence (U-937 cells; 24 hours, 5.0 μg/ml, control 3.2) of 5.0% and an Apoptosis occurrence (U-937 cells; 24 hours, 10 μg/ml, control 3.2) of 6.8%. The Apoptosis occurrence (U-937 cells; 48 hours, 2.5 μg/ml, control 4.5) was 5.2%, the Apoptosis occurrence (U-937 cells; 48 hours, 5.0 μg/ml, control 4.5) was 11.7% and the Apoptosis occurrence (U-937 cells; 48 hours, 10 μg/ml, control 4.5) was 66.9%. For the same molecule, the Apoptosis occurrence (HL-60 cells [5]; 24 hours, 2.5 μg/ml, control 0.7) was 0.7%, the Apoptosis occurrence (HL-60 cells [5]; 24 hours, 5.0 μg/ml, control 0.7) was 1.7% and the Apoptosis occurrence (HL-60 cells [5]; 24 hours, 10 μg/ml, control 0.7) was 11.8%. It also gave an Apoptosis occurrence (HL-60 cells [5]; [11]) of 1.3%, an Apoptosis occurrence (HL-60 cells [5]; [12]) of 4.2% and an Apoptosis occurrence (HL-60 cells [5]; [13]) of 22.6%. The IC50 (HGC-27 cells [6]) was 1.5 µg/mL (≈ 6.04 µM), the IC50 (HLC-1 cells [7]) was 2.2 µg/mL (≈ 8.86 µM) and the IC50 (HL-60 cells [8]) was 4.2 µg/mL (≈ 16.9 µM). The Apoptosis occurrence (C6 cells; 24 hours, 2.5 μg/ml, control 0.3) was 15.9%, the Apoptosis occurrence (C6 cells; 24 hours, 5.0 μg/ml, control 0.3) was 18.4% and the Apoptosis occurrence (C6 cells; 24 hours, 10 μg/ml, control 0.3) was 27.6%. For the same molecule, the Apoptosis occurrence (C6 cells; 48 hours, 2.5 μg/ml, control 0.4) was 38.4%, the Apoptosis occurrence (C6 cells; 48 hours, 5.0 μg/ml, control 0.4) was 64.8% and the Apoptosis occurrence (C6 cells; 48 hours, 10 μg/ml, control 0.4) was 67.1%. The IC50 [9] was 13 µg/mL (≈ 52.4 µM) and the MIC [10] was 39 µg/mL (≈ 157 µM).
